One data set has as its target human MRP1 (Homo sapiens, UniProt P33527). Nature of the data set: CETA in MDCK cells transduced with human MRP1. The conditions noted are these: calcein AM 1 μM; n = 1. As to the method: (§1) For the in vitro transport studies LLC-PK1 cells transduced with human MDR1 or murine Mdr1a and respective wild-type LLC cells were used. Additionally, Madin-Darby canine kidney type II (MDCK-II) cells transduced with murine Bcrp1 or human BCRP or human MRP1 and respective wild-type MDCK-II cells were used. The cell lines were a kind gift from Piet Borst and Alfred Schinkel (The Netherlands Cancer Institute, Amsterdam, the Netherlands). Culturing of the cells was performed as described earlier. MDR1- and Mdr1a-overexpressing LLC cells were regularly tested for vincristine sulfate resistance (0.64 μM) as described before. The MDCK-II cells transduced with Bcrp1 or BCRP were regularly tested for mitoxantrone resistance (20 μM).
(§2) CETA was performed in triplicate as described previously. With a density of 0.3 × 10^6 cells/cm^2 LLC cells were seeded on transparent polyester membrane filters (Transwell-Clear®, 6-well, 24-mm diameter, 0.4-μm pore size, Corning Costar Corporation, Cambridge, MA, USA). […] Transport experiments were performed 5–7 days after the cells reached 100% confluence. […] Control CETA was performed with calcein AM (1 μM) for MRP1 [26] and [^14C]PhIP (2 μM) for Bcrp1/BCRP. The membrane integrity was determined by mannitol diffusion and transepithelial electrical resistance (TEER), with criteria for exclusion described earlier.

The next data set concerns the target T1, murine Mdr1a (Mus musculus, UniProt P21447).
T1 construct: host or cells: LLC-PK1 (porcine kidney) cells
In words: CETA in LLC cells transduced with murine Mdr1a. Type of data set: in vitro ADME. The conditions noted are these: tariquidar 0.5 μM; Mdr1a-overexpressing LLC cells.

Another data set relates to cerebral Pgp. Also on record: method as in PMID 20016890. As to conditions: tariquidar 15 mg/kg; rats; cited from earlier work.
On the set-up of data set [1]: method as in PMID 19910428. The conditions noted are these: cited from earlier work.
The target in the next data set is human BCRP (Homo sapiens, UniProt Q9UNQ0). The conditions noted are these: [^14C]PhIP 2 μM; n = 1. As to the method:
as §1, §2

For another data set, the target named is murine Bcrp1 (Mus musculus, UniProt Q7TMS5). As to conditions: [^14C]PhIP 2 μM; n = 1. As to the method: as §1, §2
murine Bcrp1, sequence (Q7TMS5 whole entry): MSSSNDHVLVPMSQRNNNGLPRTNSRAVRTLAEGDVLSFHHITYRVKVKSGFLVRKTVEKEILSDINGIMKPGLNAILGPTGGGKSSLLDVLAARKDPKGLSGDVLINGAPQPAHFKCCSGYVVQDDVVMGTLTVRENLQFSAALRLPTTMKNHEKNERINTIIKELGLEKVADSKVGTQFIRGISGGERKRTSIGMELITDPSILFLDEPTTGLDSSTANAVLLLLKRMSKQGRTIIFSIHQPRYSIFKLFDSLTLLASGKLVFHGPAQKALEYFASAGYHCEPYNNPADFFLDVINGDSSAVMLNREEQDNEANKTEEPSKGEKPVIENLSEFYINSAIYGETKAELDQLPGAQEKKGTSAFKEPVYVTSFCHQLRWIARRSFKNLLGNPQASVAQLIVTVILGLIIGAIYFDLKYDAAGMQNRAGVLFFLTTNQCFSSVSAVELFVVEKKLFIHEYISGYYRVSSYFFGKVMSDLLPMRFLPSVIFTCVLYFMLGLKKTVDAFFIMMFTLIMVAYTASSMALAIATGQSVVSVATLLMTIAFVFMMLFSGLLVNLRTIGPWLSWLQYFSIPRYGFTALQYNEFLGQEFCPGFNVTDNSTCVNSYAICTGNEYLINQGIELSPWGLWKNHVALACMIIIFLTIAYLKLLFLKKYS

The source of these data is PMC3775124 (Nuclear Medicine and Biology, 2013).

T1 sequence (P21447 whole entry): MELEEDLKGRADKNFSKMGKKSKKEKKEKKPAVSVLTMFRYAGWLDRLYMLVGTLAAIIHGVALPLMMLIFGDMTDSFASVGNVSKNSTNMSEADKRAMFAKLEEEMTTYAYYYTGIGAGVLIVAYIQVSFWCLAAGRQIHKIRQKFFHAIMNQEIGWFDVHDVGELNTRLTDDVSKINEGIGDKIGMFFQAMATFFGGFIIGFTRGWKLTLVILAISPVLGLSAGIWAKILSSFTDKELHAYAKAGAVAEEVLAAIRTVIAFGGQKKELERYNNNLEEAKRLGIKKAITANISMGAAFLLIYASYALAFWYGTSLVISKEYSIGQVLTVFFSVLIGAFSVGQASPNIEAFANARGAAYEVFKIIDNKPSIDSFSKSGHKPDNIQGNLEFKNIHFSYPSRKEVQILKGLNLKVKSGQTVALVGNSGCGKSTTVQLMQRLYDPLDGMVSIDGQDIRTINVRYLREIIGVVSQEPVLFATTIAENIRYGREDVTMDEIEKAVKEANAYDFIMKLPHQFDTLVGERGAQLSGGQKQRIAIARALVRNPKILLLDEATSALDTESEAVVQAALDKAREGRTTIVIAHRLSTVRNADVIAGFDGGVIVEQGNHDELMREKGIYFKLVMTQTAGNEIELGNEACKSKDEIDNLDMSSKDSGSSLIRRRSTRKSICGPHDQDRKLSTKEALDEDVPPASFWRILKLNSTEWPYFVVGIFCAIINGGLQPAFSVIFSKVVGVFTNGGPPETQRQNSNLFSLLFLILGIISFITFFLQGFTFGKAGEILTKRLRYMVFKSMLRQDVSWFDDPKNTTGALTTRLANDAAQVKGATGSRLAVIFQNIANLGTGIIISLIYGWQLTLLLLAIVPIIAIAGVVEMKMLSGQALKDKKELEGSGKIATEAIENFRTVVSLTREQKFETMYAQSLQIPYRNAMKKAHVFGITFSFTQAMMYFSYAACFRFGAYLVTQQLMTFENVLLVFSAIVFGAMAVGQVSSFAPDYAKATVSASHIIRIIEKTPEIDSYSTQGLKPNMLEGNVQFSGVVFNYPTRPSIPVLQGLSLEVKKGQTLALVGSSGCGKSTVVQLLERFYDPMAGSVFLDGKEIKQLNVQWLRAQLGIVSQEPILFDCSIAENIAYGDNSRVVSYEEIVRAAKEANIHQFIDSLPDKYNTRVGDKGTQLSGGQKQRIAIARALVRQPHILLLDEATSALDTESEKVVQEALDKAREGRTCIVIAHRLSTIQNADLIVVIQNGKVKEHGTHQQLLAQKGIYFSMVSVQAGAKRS
human MRP1, sequence (P33527 whole entry): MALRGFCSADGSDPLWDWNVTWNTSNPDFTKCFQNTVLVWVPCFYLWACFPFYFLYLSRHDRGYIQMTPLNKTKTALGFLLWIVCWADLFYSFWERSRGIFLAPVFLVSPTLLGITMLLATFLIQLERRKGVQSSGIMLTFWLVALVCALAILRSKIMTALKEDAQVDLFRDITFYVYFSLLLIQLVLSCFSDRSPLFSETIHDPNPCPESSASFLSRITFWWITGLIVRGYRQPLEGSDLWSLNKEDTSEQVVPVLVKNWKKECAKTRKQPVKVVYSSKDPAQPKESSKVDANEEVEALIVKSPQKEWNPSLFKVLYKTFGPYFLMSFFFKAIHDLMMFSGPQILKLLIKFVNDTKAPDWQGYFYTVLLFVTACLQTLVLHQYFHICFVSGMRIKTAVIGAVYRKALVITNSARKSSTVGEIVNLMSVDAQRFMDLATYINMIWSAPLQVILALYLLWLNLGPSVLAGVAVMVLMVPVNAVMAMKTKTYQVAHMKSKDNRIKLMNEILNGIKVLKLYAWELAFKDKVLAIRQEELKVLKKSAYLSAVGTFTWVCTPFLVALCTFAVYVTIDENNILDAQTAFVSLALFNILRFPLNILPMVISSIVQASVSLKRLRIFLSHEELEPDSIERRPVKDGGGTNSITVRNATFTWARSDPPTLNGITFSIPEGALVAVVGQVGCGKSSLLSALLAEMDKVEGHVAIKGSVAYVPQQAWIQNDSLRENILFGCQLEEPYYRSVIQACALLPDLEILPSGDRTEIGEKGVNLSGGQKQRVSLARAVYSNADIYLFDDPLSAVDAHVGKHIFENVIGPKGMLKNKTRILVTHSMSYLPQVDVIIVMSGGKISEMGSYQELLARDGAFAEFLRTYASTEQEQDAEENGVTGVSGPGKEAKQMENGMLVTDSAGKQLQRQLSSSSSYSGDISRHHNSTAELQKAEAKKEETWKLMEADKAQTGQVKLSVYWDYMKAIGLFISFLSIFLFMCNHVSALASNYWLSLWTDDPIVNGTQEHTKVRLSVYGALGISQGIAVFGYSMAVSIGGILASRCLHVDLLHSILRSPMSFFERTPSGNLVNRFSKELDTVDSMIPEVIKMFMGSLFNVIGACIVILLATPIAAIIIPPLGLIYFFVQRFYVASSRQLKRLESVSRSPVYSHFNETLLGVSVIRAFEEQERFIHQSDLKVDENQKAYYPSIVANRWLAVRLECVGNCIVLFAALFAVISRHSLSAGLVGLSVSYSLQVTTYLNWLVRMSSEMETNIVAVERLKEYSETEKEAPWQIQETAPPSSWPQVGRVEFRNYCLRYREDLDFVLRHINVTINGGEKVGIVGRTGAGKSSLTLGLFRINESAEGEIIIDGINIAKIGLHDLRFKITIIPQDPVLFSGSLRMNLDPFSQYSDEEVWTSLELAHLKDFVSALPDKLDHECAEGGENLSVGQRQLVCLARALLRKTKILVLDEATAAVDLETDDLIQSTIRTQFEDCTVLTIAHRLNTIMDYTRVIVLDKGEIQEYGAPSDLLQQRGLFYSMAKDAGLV
human BCRP, sequence (Q9UNQ0 whole entry): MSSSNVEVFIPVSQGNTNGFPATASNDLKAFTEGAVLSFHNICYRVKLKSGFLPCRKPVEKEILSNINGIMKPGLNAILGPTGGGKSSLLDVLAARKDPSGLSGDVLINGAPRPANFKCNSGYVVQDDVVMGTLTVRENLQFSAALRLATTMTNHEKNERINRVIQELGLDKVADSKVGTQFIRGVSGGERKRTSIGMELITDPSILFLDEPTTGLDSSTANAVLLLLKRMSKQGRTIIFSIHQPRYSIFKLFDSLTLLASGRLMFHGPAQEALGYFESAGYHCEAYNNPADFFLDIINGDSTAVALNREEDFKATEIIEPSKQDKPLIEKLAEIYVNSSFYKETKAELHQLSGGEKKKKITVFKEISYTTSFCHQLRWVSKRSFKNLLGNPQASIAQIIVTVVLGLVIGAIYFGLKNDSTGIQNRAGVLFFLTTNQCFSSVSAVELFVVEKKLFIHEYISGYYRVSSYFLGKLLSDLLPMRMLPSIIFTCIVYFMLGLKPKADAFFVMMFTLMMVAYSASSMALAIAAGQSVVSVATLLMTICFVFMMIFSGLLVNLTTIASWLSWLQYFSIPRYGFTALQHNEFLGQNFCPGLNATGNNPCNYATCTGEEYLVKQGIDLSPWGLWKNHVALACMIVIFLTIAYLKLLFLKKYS

Regarding calcein AM, at human MRP1, the “control CETA for MRP1 function” value is “functional MRP1 was present”.

Turning to `COc1cc2c(cc1OC)CN(CCc1ccc(NC(=O)c3cc(OC)c(OC)cc3NC(=O)c3cnc4ccccc4c3)cc1)CC2` [tariquidar, Tariquidar dimesylate], the “inhibition of [^3H]verapamil transport” value at murine Mdr1a is listed as “almost completely inhibited”. For the same molecule, the “inhibition of cerebral Pgp” value in the data set with cerebral Pgp is on record as “complete inhibition”. For the same molecule, in data set [1], the “influence on (R)-[^11C]verapamil metabolism and plasma protein binding” value is “does not influence”.

On to `Cn1c(N)nc2ncc(-c3ccccc3)cc21` [[^14C]PhIP, [^14C]2-amino-1-methyl-6-phenylimidazo[4,5-b]pyridine], for which the “control CETA for BCRP function” value on human BCRP is on record as “functional”. For the same molecule, the “control CETA for Bcrp1 function” value at murine Bcrp1 was “functional”.
